Test system: adults with idiopathic or diabetic gastroparesis
Assay: Safety: adverse events, laboratory values, vital signs, Phase 2a
Settings: for Any Aes, % of subjects / Any Aes, n subjects / Any TEAEs by maximum severity: Mild, % of subjects / Any TEAEs by maximum severity: Mild, n subjects / Any TEAEs by maximum severity: Moderate, % of subjects / Any TEAEs by maximum severity: Moderate, n subjects / Any TEAEs by maximum severity: Severe, % of subjects / Any TEAEs by maximum severity: Severe, n subjects / Any TEAEs leading to death, % of subjects / Any TEAEs leading to death, n subjects / Any TEAEs leading to discontinuation, % of subjects / Any TEAEs leading to discontinuation, n subjects / Any TEAEs, % of subjects / Any TEAEs, e (number of events) / Any TEAEs, n subjects / Any serious TEAEs, % of subjects / Any serious TEAEs, n subjects / Any study drug-related TEAEs by maximum severity: Mild, % of subjects / Any study drug-related TEAEs by maximum severity: Mild, n subjects / Any study drug-related TEAEs by maximum severity: Moderate, % of subjects / Any study drug-related TEAEs by maximum severity: Moderate, n subjects / Any study drug-related TEAEs by maximum severity: Severe, % of subjects / Any study drug-related TEAEs by maximum severity: Severe, n subjects / Any study drug-related TEAEs leading to discontinuation, % of subjects / Any study drug-related TEAEs leading to discontinuation, n subjects / Any study drug-related TEAEs, % of subjects / Any study drug-related TEAEs, n subjects / Any study drug-related serious TEAEs, % of subjects / Any study drug-related serious TEAEs, n subjects / subjects who experienced a TEAE: Safety Population
Description: Safety was evaluated through assessments of Aes, vital signs, physical examinations, clinical laboratory evaluations (including prolactin), and ECG findings. Additionally, a single, optional PGx blood sample may have been collected at any time during the subject's participation in the study.
Safety variables included Aes, clinical laboratory results (including prolactin), vital signs, ECGs, and physical examination findings.

[2H]c1c([2H])c([2H])c2c([nH]c(=O)n2CCCN2CCC(n3c(=O)[nH]c4cc(Cl)ccc43)CC2)c1[2H] [Deudomperidone, 1-{3-[4-(5-chloro-2-oxo-2,3-dihydro-1H-1,3-benzodiazol-1-yl)piperidin-1yl]propyl}-2,3-dihydro(4,5,6,7-D4)-1H-1,3-benzodiazol-2-one]
TEAE Nausea, % (10 mg BID (N = 30)): (3.3) % | TEAE Nervous system disorders, % (10 mg BID (N = 30)): (0.0) % | TEAE Palpitations, % (10 mg BID (N = 30)): (3.3) % | TEAE Sinusitis, % (10 mg BID (N = 30)): (0.0) % | TEAE Tinnitus, % (10 mg BID (N = 30)): (3.3) % | TEAE Vomiting, % (10 mg BID (N = 30)): (3.3) % | Any Aes, % of subjects (10 mg BID (N = 30)): (23.3) % | Any Aes, n subjects (10 mg BID (N = 30)): 7 | Any TEAEs by maximum severity: Mild, % of subjects (10 mg BID (N = 30)): (10.0) % | Any TEAEs by maximum severity: Mild, n subjects (10 mg BID (N = 30)): 3 | Any TEAEs by maximum severity: Moderate, % of subjects (10 mg BID (N = 30)): (6.7) % | Any TEAEs by maximum severity: Moderate, n subjects (10 mg BID (N = 30)): 2 | Any TEAEs by maximum severity: Severe, % of subjects (10 mg BID (N = 30)): (3.3) % | Any TEAEs by maximum severity: Severe, n subjects (10 mg BID (N = 30)): 1 | Any TEAEs leading to death, % of subjects (10 mg BID (N = 30)): (0.0) % | Any TEAEs leading to death, n subjects (10 mg BID (N = 30)): 0 | Any TEAEs leading to discontinuation, % of subjects (10 mg BID (N = 30)): (0.0) % | Any TEAEs leading to discontinuation, n subjects (10 mg BID (N = 30)): 0 | Any TEAEs, % of subjects (10 mg BID (N = 30)): 20.0% | Any TEAEs, e (number of events) (10 mg BID (N = 30)): 11 | Any TEAEs, n subjects (10 mg BID (N = 30)): 6 | Any serious TEAEs, % of subjects (10 mg BID (N = 30)): (0.0) % | Any serious TEAEs, n subjects (10 mg BID (N = 30)): 0 | Any study drug-related TEAEs by maximum severity: Mild, % of subjects (10 mg BID (N = 30)): (13.3) % | Any study drug-related TEAEs by maximum severity: Mild, n subjects (10 mg BID (N = 30)): 4 | Any study drug-related TEAEs by maximum severity: Moderate, % of subjects (10 mg BID (N = 30)): (0.0) % | Any study drug-related TEAEs by maximum severity: Moderate, n subjects (10 mg BID (N = 30)): 0 | Any study drug-related TEAEs by maximum severity: Severe, % of subjects (10 mg BID (N = 30)): (0.0) % | Any study drug-related TEAEs by maximum severity: Severe, n subjects (10 mg BID (N = 30)): 0 | Any study drug-related TEAEs leading to discontinuation, % of subjects (10 mg BID (N = 30)): (0.0) % | Any study drug-related TEAEs leading to discontinuation, n subjects (10 mg BID (N = 30)): 0 | Any study drug-related TEAEs, % of subjects (10 mg BID (N = 30)): (13.3) % | Any study drug-related TEAEs, n subjects (10 mg BID (N = 30)): 4 | Any study drug-related serious TEAEs, % of subjects (10 mg BID (N = 30)): (0.0) % | Any study drug-related serious TEAEs, n subjects (10 mg BID (N = 30)): 0 | subjects who experienced a TEAE (10 mg BID): 6 (20.0%) subjects (%) | TEAE diarrhoea (20 mg QD): 1 (6.7%) subjects (%) | TEAE electrocardiogram QT prolonged (20 mg QD): 2 (13.3%) subjects (%) | TEAE hypoglycaemia (20 mg QD): 1 (6.7%) subjects (%) | TEAEs reported (20 mg QD): 8 TEAEs | other TEAEs, each: constipation, dyspepsia, sinusitis, headache (20 mg QD): 1 subject each | other study drug-related TEAE: headache (20 mg QD): 1 subject each | study drug-related TEAE diarrhoea (20 mg QD): 1 (6.7%) subjects (%) | study drug-related TEAE electrocardiogram QT prolonged (20 mg QD): 2 (13.3%) subjects (%) | study drug-related TEAEs reported (20 mg QD): 4 TEAEs | subjects with study drug-related TEAEs (20 mg QD): 4 (26.7) subjects (%) | Study drug-related TEAE Abdominal pain lower, % (20 mg QD (N = 15)): (0.0) % | Study drug-related TEAE Blood creatine phosphokinase increased, % (20 mg QD (N = 15)): (0.0) % | Study drug-related TEAE Cardiac disorders, % (20 mg QD (N = 15)): (0.0) % | Study drug-related TEAE Diarrhoea, % (20 mg QD (N = 15)): (6.7) % | Study drug-related TEAE Ear and labyrinth disorders, % (20 mg QD (N = 15)): (0.0) % | Study drug-related TEAE Electrocardiogram QT prolonged, % (20 mg QD (N = 15)): (13.3) % | Study drug-related TEAE Gastrointestinal disorders, % (20 mg QD (N = 15)): (6.7) % | Study drug-related TEAE Headache, % (20 mg QD (N = 15)): (6.7) % | Study drug-related TEAE Investigations, % (20 mg QD (N = 15)): (13.3) % | Study drug-related TEAE Nausea, % (20 mg QD (N = 15)): (0.0) % | Study drug-related TEAE Nervous system disorders, % (20 mg QD (N = 15)): (6.7) % | Study drug-related TEAE Palpitations, % (20 mg QD (N = 15)): (0.0) % | Study drug-related TEAE Tinnitus, % (20 mg QD (N = 15)): (0.0) % | Subjects with any TEAEs, % (20 mg QD (N = 15)): 40.0% | Subjects with any TEAEs, e (events) (20 mg QD (N = 15)): 8 | Subjects with any study drug-related TEAE, % (20 mg QD (N = 15)): 26.7% | Subjects with any study drug-related TEAE, e (events) (20 mg QD (N = 15)): 4 | TEAE Abdominal pain lower, % (20 mg QD (N = 15)): (0.0) % | TEAE Arthralgia, % (20 mg QD (N = 15)): (0.0) % | TEAE Back pain, % (20 mg QD (N = 15)): (0.0) % | TEAE Blood creatine phosphokinase increased, % (20 mg QD (N = 15)): (0.0) % | TEAE Cardiac disorders, % (20 mg QD (N = 15)): (0.0) % | TEAE Constipation, % (20 mg QD (N = 15)): (6.7) % | TEAE Decreased appetite, % (20 mg QD (N = 15)): (0.0) % | TEAE Diarrhoea, % (20 mg QD (N = 15)): (6.7) % | TEAE Dyspepsia, % (20 mg QD (N = 15)): (6.7) % | TEAE Ear and labyrinth disorders, % (20 mg QD (N = 15)): (0.0) % | TEAE Electrocardiogram QT prolonged, % (20 mg QD (N = 15)): (13.3) % | TEAE Gastrointestinal disorders, % (20 mg QD (N = 15)): (13.3) % | TEAE Headache, % (20 mg QD (N = 15)): (6.7) % | TEAE Hypoglycaemia, % (20 mg QD (N = 15)): (6.7) % | TEAE Infections and infestations, % (20 mg QD (N = 15)): (6.7) % | TEAE Investigations, % (20 mg QD (N = 15)): (13.3) % | TEAE Metabolism and nutrition disorders, % (20 mg QD (N = 15)): (6.7) % | TEAE Musculoskeletal and connective tissue disorders, % (20 mg QD (N = 15)): (0.0) % | TEAE Nausea, % (20 mg QD (N = 15)): (0.0) % | TEAE Nervous system disorders, % (20 mg QD (N = 15)): (6.7) % | TEAE Palpitations, % (20 mg QD (N = 15)): (0.0) % | TEAE Sinusitis, % (20 mg QD (N = 15)): (6.7) % | TEAE Tinnitus, % (20 mg QD (N = 15)): (0.0) % | TEAE Vomiting, % (20 mg QD (N = 15)): (0.0) % | Any Aes, % of subjects (20 mg QD (N = 15)): (40.0) % | Any Aes, n subjects (20 mg QD (N = 15)): 6 | Any TEAEs by maximum severity: Mild, % of subjects (20 mg QD (N = 15)): (40.0) % | Any TEAEs by maximum severity: Mild, n subjects (20 mg QD (N = 15)): 6 | Any TEAEs by maximum severity: Moderate, % of subjects (20 mg QD (N = 15)): (0.0) % | Any TEAEs by maximum severity: Moderate, n subjects (20 mg QD (N = 15)): 0 | Any TEAEs by maximum severity: Severe, % of subjects (20 mg QD (N = 15)): (0.0) % | Any TEAEs by maximum severity: Severe, n subjects (20 mg QD (N = 15)): 0 | Any TEAEs leading to death, % of subjects (20 mg QD (N = 15)): (0.0) % | Any TEAEs leading to death, n subjects (20 mg QD (N = 15)): 0 | Any TEAEs leading to discontinuation, % of subjects (20 mg QD (N = 15)): (0.0) % | Any TEAEs leading to discontinuation, n subjects (20 mg QD (N = 15)): 0 | Any TEAEs, % of subjects (20 mg QD (N = 15)): 40.0% | Any TEAEs, e (number of events) (20 mg QD (N = 15)): 8 | Any TEAEs, n subjects (20 mg QD (N = 15)): 6 | Any serious TEAEs, % of subjects (20 mg QD (N = 15)): (0.0) % | Any serious TEAEs, n subjects (20 mg QD (N = 15)): 0 | Any study drug-related TEAEs by maximum severity: Mild, % of subjects (20 mg QD (N = 15)): (26.7) % | Any study drug-related TEAEs by maximum severity: Mild, n subjects (20 mg QD (N = 15)): 4 | Any study drug-related TEAEs by maximum severity: Moderate, % of subjects (20 mg QD (N = 15)): (0.0) % | Any study drug-related TEAEs by maximum severity: Moderate, n subjects (20 mg QD (N = 15)): 0 | Any study drug-related TEAEs by maximum severity: Severe, % of subjects (20 mg QD (N = 15)): (0.0) % | Any study drug-related TEAEs by maximum severity: Severe, n subjects (20 mg QD (N = 15)): 0 | Any study drug-related TEAEs leading to discontinuation, % of subjects (20 mg QD (N = 15)): (0.0) % | Any study drug-related TEAEs leading to discontinuation, n subjects (20 mg QD (N = 15)): 0 | Any study drug-related TEAEs, % of subjects (20 mg QD (N = 15)): (26.7) % | Any study drug-related TEAEs, n subjects (20 mg QD (N = 15)): 4 | Any study drug-related serious TEAEs, % of subjects (20 mg QD (N = 15)): (0.0) % | Any study drug-related serious TEAEs, n subjects (20 mg QD (N = 15)): 0 | subjects who experienced a TEAE (20 mg QD): 6 (40.0%) subjects (%) | severity of study drug-related TEAEs (all dose groups): mild in severity | deaths, serious TEAEs, discontinuations due to a TEAE (all dose groups, 14 days): no deaths, serious TEAEs, or discontinuations due to a TEAE | changes from baseline in laboratory parameters (over treatment period): no meaningful changes from baseline
